What all share (assay type): cell-based
Assay [1] deals with Methicillin-resistant Staphylococcus aureus NRS384 (MRSA USA300). Briefly: MIC broth microdilution, initial screening. The protocol: The minimum inhibitory concentrations (MICs) of the tested compounds and control drugs (linezolid, vancomycin, gentamicin (antibiotics) and fluconazole and 5-fluorocytosine (5-FC) (antifungal drugs)) were determined using the broth microdilution method, according to guidelines outlined by the Clinical and Laboratory Standards Institute (CLSI, Clinical and Laboratory Standards Institute, Methods for antimicrobial susceptibility testing of anaerobic bacteria; approved standard, M11-A8. 8th ed., 2012; CLSI, Clinical and Laboratory Standards Institute. M27-A3 Reference Method for Broth Dilution Antifungal Susceptibility Testing of Yeasts; Approved Standard—Third Edition, Wayne, Pa., 2008) against clinically-relevant bacterial (methicillin-resistant Staphylococcus aureus (MRSA), Escherichia coli, and C. difficile strains) and fungal (Candida albicans) strains. S. aureus and E. coli were grown aerobically overnight on tryptone soy agar plates at 37° C. C. difficile was grown anaerobically on brain heart infusion supplemented agar at 37° C. for 48 hours. C. albicans was grown aerobically overnight on yeast peptone dextrose (YPD) agar plate at 35° C. Afterwards, a bacterial solution equivalent to 0.5 McFarland standard was prepared and diluted in cation-adjusted Mueller-Hinton broth (CAMHB) (for S. aureus and E. coli) to achieve a bacterial concentration of about 5×10^5 CFU/mL. C. difficile was diluted in brain heart infusion supplemented broth, supplemented with yeast extract, hemin and vitamin K to achieve a bacterial concentration of about 5×10^5 CFU/mL. C. albicans was diluted in Roswell Park Memorial Institute (RPMI 1640) medium with glutamine and without bicarbonate (GIBCO by Life Technologies, Green Island, N.Y., USA) which was buffered to pH 7.0 with 0.165 M of [3-(N-morpholino) propanesulfonic acid] (MOPS) (DOT Scientific Inc., Burton, Mich., USA) to achieve a fungal concentration of about 1.5×10^3 CFU/mL. Compounds and control drugs were added in the first row of the 96-well plates and serially diluted with the corresponding media containing bacteria. Plates were then incubated aerobically at 37° C. for 18-20 hours (for S. aureus and E. coli). C. difficile was incubated anaerobically at 37° C. for 48 hours. C. albicans was incubated aerobically at 37° C. for 24 hours.
(§1) The minimum inhibitory concentrations (MICs) of the tested compounds and control drugs; linezolid, vancomycin, gentamicin (antibiotics) and fluconazole and 5-fluorocytosine (5-FC) (antifungal drugs) were determined using the broth microdilution method, according to guidelines outlined by the Clinical and Laboratory Standards Institute (CLSI)^1, 2, 3 against clinically-relevant bacterial (methicillin-resistant Staphylococcus aureus (MRSA), Escherichia coli and Clostridium difficile strains) and fungal (Candida albicans) strain. S. aureus and E. coli were grown aerobically overnight on tryptone soy agar plates at 37° C. C. difficile was grown anaerobically on brain heart infusion supplemented agar at 37° C. for 48 hours. C. albicans was grown aerobically overnight on yeast peptone dextrose (YPD) agar plate at 35° C. Afterwards, a bacterial solution equivalent to 0.5 McFarland standard was prepared and diluted in cation-adjusted Mueller-Hinton broth (CAMHB) (for S. aureus and E. coli) to achieve a bacterial concentration of about 5×10^5 CFU/mL. C. difficile was diluted in brain heart infusion supplemented broth, supplemented with yeast extract, hemin and vitamin K to achieve a bacterial concentration of about 5×10^5 CFU/mL. C. albicans was diluted in Roswell Park Memorial Institute (RPMI 1640) medium with glutamine and without bicarbonate (GIBCO by Life Technologies, Green Island, N.Y., USA) which was buffered to pH 7.0 with 0.165 M of [3-(N-morpholino) propanesulfonic acid]
(In general: Broth dilution looks for growth in wells or tubes with falling amounts of substance.)

Assay [2] deals with Methicillin-sensitive Staphylococcus aureus ATCC-6538 (MSSA ATCC-6538). The assay can be described thus: MIC of active MY compounds. The following applies: read-out: MIC MSSA ATCC-6538.
Description: (§2) Based upon the initial results obtained, the active compounds were further screened against additional clinical isolates of methicillin-sensitive S. aureus (MSSA), methicillin-resistant S. aureus (MRSA), vancomycin-resistant S. aureus (VRSA), Staphylococcus epidermidis, vancomycin-resistant Enterococcus faecium (VRE), vancomycin-resistant Enterococcus faecalis (VRE) and Streptococcus pneumoniae, as presented in Table 2. Additionally, we examined whether the compounds were bacteriostatic (inhibit bacteria from growing) or bactericidal (kill bacteria) by determining the minimum bactericidal concentration (MBC). The MBC was determined by plating 5 μL from each well where no growth was present (in the MIC plates) onto tryptic soya agar plates and incubating plates at 37° C. for 24 hours. The MBC was categorized as the lowest concentration that generated a 99.9% reduction in bacterial colony-forming units (Table 3).
as §1, with “acid] (MOPS) (dot scientific inc., Burton, Mich., USA) to achieve a fungal concentration of about 1.5×10^3 CFU/mL. Compounds and control drugs were added in the first row of the 96-well plates and serially diluted with the corresponding media containing bacteria/fungi. Plates were then, incubated aerobically at 37° C. for 18-20 hours (for S. aureus and E. coli). C. difficile was incubated anaerobically at 37° C. for 48 hours. C. albicans was incubated aerobically at 37° C. for 24 hours.” for “acid]”

Assay [3] has as its system Staphylococcus epidermidis (NRS-101). The assay can be described thus: MIC of active MY compounds. The following applies: NRS101, read-out: MIC S. epidermidis NRS 101.
Description: as §2
as §1, with “acid] (MOPS) (dot scientific inc., Burton, Mich., USA) to achieve a fungal concentration of about 1.5×10^3 CFU/mL. Compounds and control drugs were added in the first row of the 96-well plates and serially diluted with the corresponding media containing bacteria/fungi. Plates were then, incubated aerobically at 37° C. for 18-20 hours (for S. aureus and E. coli). C. difficile was incubated anaerobically at 37° C. for 48 hours. C. albicans was incubated aerobically at 37° C. for 24 hours.” for “acid]”

The subject of assay [4] is Vancomycin-resistant Enterococcus fecalis ATCC-51299 (VRE ATCC-51299). The assay can be described thus: MIC of active MY compounds. The following applies: read-out: MIC VRE ATCC-51299.
Description: as §2
as §1, with “acid] (MOPS) (dot scientific inc., Burton, Mich., USA) to achieve a fungal concentration of about 1.5×10^3 CFU/mL. Compounds and control drugs were added in the first row of the 96-well plates and serially diluted with the corresponding media containing bacteria/fungi. Plates were then, incubated aerobically at 37° C. for 18-20 hours (for S. aureus and E. coli). C. difficile was incubated anaerobically at 37° C. for 48 hours. C. albicans was incubated aerobically at 37° C. for 24 hours.” for “acid]”

For assay [5], the system named is Vancomycin-resistant Staphylococcus aureus (VRSA10). The assay can be described thus: MIC of active MY compounds. The following applies: read-out: MIC VRSA10.
Description: as §2
as §1, with “acid] (MOPS) (dot scientific inc., Burton, Mich., USA) to achieve a fungal concentration of about 1.5×10^3 CFU/mL. Compounds and control drugs were added in the first row of the 96-well plates and serially diluted with the corresponding media containing bacteria/fungi. Plates were then, incubated aerobically at 37° C. for 18-20 hours (for S. aureus and E. coli). C. difficile was incubated anaerobically at 37° C. for 48 hours. C. albicans was incubated aerobically at 37° C. for 24 hours.” for “acid]”

The mark [6] stands for this setting: MRSA NRS384 (USA300), broth microdilution, 18-20 hours, read-out: minimum inhibitory concentration (MIC) S. aureus (MRSA USA300).
Where [7] appears, read: read-out: minimum inhibitory concentration (MIC) S. aureus (MRSA USA300), MRSA NRS384 (USA300), broth microdilution, 18-20 hours.

SMILES strings stand for the structures. ≈ marks a conversion by molar mass, not a printed value. Read-outs that look alike come from different tables or passages of the source. A value given as a limit tells only on which side of the number the result lay.

As to `CC(=O)NC[C@H]1CN(c2ccc(N3CCOCC3)c(F)c2)C(=O)O1` [Linezolid, reference compound], the MIC was found to be 1 µg/mL (≈ 2.96 µM) in assay [1] (setting [6]); 0.5 µg/mL in assay [2]; 0.5 µg/mL in assay [3]; 1 µg/mL in assay [4]; 1 µg/mL in assay [5].

As for `O=C(Nc1cccc(Nc2ccc(Cl)nn2)c1)Nc1ccc(Cl)c(Cl)c1` [MY14, 1-(3-((6-chloropyridazin-3-yl)amino)phenyl)-3-(3,4-dichlorophenyl)urea], the MIC in assay [2] came out at 2 µg/mL; in assay [3], 8 µg/mL; in assay [4], 64 µg/mL; in assay [5], 2 µg/mL.

`O=C(Nc1ccc(-c2ccc(=O)[nH]n2)cc1)Nc1ccc(Cl)c(Cl)c1` [MY21, 1-(3,4-dichlorophenyl)-3-(4-(6-oxo-1,6-dihydropyridazin-3-yl)phenyl)urea]: the MIC was 0.5 to 1 µg/mL (≈ 1.33 to 2.67 µM) in assay [1] (setting [7]); 1 µg/mL in assay [2]; 1 µg/mL in assay [3]; 4 µg/mL in assay [4]; 1 µg/mL in assay [5].

`O=C(Nc1ccc(Oc2ccc(=O)[nH]n2)cc1)Nc1ccc(Cl)c(Cl)c1` [MY24, 1-(3,4-dichlorophenyl)-3-(4-((6-oxo-1,6-dihydropyridazin-3-yl)oxy)phenyl)urea]: the MIC in assay [1] (setting [7]) was 0.5 to 1 µg/mL (≈ 1.28 to 2.56 µM); in assay [2] it was 1 µg/mL; in assay [3] it was 1 µg/mL; in assay [4], 4 µg/mL; in assay [5], 1 µg/mL.

Take `O=C(Nc1ccc(Oc2ccc(=O)[nH]n2)cc1)Nc1ccc(Cl)c(C(F)(F)F)c1` [MY31, 1-(4-chloro-3-(trifluoromethyl)phenyl)-3-(4-((6-oxo-1,6-dihydropyridazin-3-yl)oxy)phenyl)urea]: the MIC in assay [1] (setting [7]) is 0.5 to 1 µg/mL (≈ 1.18 to 2.35 µM); in assay [2] it was 0.5 µg/mL; in assay [3], 0.5 µg/mL; in assay [4], 2 µg/mL; in assay [5] it was 0.5 µg/mL.

For `CNC(=O)c1cc(Oc2ccc(NC(=O)Nc3ccc(Cl)c(C(F)(F)F)c3)cc2)ccn1` [Sorafenib, reference compound], the MIC was 4 µg/mL (≈ 8.61 µM) in assay [1] (setting [6]); 4 µg/mL in assay [2]; 8 µg/mL in assay [3]; greater than 64 µg/mL in assay [4]; 4 µg/mL in assay [5].

With `CN[C@H](CC(C)C)C(=O)N[C@H]1C(=O)N[C@@H](CC(N)=O)C(=O)N[C@H]2C(=O)N[C@H]3C(=O)N[C@H](C(=O)N[C@H](C(=O)O)c4cc(O)cc(O)c4-c4cc3ccc4O)[C@H](O)c3ccc(c(Cl)c3)Oc3cc2cc(c3O[C@@H]2O[C@H](CO)[C@@H](O)[C@H](O)[C@H]2O[C@H]2C[C@](C)(N)[C@H](O)[C@H](C)O2)Oc2ccc(cc2Cl)[C@H]1O` [Vancomycin, reference compound], the MIC in assay [1] (read-out: minimum inhibitory concentration (MIC) S. aureus (MRSA USA300)) stood at 1 µg/mL (≈ 0.69 µM); in assay [2], 1 µg/mL; in assay [3] it was 2 µg/mL; in assay [4] it was 32 µg/mL; in assay [5] it was 64 µg/mL.
